According to ChEMBL document CHEMBL1126591, “Dibenz[b,e]oxepin derivatives: novel antiallergic agents possessing thromboxane A2 and histamine H1 dual antagonizing activity. 1” (J Med Chem, 1993):
Calls of active or inactive are those of the source. No cut-off for these calls is given here.

What was measured:
[1] = Affinity for TXA2 / PGH-2 receptors in guinea pig platelets, by inhibition of [3H]U-46619 binding
[2] = biological target: Histamine H1 receptor (Cavia porcellus) (UniProt P31389); test: Inhibitory effect on the specific binding of [3H]pyrilamine to guinea pig cerebellum histamine H1 receptor at 1 uM; format: tissue-based
Histamine H1 receptor = Histamine H1 receptor (Cavia porcellus, UniProt P31389); test: Inhibition of the specific binding of [3H]pyrilamine to guinea pig cerebellum histamine H1 receptor; format: tissue-based
Rattus norvegicus [3] = test: Compound concentration inhibiting 48 hr homologous passive cutaneous Anaphylaxis in rats peroral administration; format: functional; conditions: po
Cavia porcellus = organism: Cavia porcellus; test: Inhibitory effect on the specific binding of [3H]U-46619 to guinea pig platelets TXA2/PGH2 receptors at 1 uM
D(2) dopamine receptor = D(2) dopamine receptor (Rattus norvegicus, UniProt P61169); test: Inhibition of dopamine receptor binding at a concentration of 10 uM; Showed negligible activities
Histamine H2 receptor = Histamine H2 receptor (Rattus norvegicus, UniProt P25102); test: Inhibition of H2 histamine receptor binding at a concentration of 10 uM; Showed negligible activities
[4] = biological target: T1, Muscarinic acetylcholine receptor M1 (Homo sapiens, UniProt P11229); test: Inhibition of muscarinic-1 receptor binding at a concentration of 10 uM; Showed negligible activities
T1 sequence (P11229 whole entry): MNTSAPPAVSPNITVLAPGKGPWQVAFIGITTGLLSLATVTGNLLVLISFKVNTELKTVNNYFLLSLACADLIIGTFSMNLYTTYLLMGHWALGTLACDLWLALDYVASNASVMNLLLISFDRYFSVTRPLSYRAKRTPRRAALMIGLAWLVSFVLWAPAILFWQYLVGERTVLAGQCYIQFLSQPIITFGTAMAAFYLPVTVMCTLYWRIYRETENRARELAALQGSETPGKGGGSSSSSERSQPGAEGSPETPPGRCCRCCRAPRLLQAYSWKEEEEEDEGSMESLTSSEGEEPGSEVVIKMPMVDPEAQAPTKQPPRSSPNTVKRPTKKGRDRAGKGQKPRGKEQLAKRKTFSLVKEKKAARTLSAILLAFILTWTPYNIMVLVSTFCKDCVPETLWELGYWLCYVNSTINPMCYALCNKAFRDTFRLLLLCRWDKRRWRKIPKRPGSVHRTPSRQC

[5] = biological target: T2, Prostaglandin E2 receptor EP3 subtype (Homo sapiens, UniProt P43115); test: Inhibition of prostaglandin E2 receptor binding at a concentration of 10 uM; Showed negligible activities
T2 sequence (P43115 whole entry): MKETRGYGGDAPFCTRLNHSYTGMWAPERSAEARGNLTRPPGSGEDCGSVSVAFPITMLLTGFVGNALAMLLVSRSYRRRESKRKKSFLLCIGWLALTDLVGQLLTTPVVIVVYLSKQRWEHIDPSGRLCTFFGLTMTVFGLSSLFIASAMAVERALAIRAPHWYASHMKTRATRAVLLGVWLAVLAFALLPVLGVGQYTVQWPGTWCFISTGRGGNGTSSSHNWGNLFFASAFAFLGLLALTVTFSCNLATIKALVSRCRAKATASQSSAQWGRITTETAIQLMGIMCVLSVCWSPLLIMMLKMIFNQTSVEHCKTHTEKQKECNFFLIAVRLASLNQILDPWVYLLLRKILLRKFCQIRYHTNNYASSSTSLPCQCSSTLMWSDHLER

[6] = biological target: Platelet-activating factor receptor (Homo sapiens, UniProt P25105); test: Inhibition of platelet-activating factor binding at a concentration of 10 uM; Showed negligible activities
[7] = Inhibition of prostaglandin I2 receptor binding at a concentration of 10 uM; Showed negligible activities
[8] = Lethal concentration in 50% rats peroral administration of compound; format: ADME, organism-based; conditions: rat, in vivo, po
[9] = biological target: 5-hydroxytryptamine receptor 5B (Rattus norvegicus, UniProt P35365); test: Inhibition of serotonin receptor binding at a concentration of 10 uM; Showed negligible activities
[10] = test system: Alpha-2 adrenergic receptor (Rattus norvegicus); test: Inhibition of alpha-2 adrenergic receptor binding at a concentration of 10 uM; Showed negligible activities
[11] = test system: Alpha-1 adrenergic receptor (Rattus norvegicus); test: Inhibition of alpha-1 adrenergic receptor binding at a concentration of 10 uM; Showed negligible activities
Rattus norvegicus [12] = test: Compound concentration inhibiting 48 hr homologous passive cutaneous Anaphylaxis in rats peroral administration; No efficacy; format: functional, organism-based

Sequence of Histamine H1 receptor (P31389 whole entry): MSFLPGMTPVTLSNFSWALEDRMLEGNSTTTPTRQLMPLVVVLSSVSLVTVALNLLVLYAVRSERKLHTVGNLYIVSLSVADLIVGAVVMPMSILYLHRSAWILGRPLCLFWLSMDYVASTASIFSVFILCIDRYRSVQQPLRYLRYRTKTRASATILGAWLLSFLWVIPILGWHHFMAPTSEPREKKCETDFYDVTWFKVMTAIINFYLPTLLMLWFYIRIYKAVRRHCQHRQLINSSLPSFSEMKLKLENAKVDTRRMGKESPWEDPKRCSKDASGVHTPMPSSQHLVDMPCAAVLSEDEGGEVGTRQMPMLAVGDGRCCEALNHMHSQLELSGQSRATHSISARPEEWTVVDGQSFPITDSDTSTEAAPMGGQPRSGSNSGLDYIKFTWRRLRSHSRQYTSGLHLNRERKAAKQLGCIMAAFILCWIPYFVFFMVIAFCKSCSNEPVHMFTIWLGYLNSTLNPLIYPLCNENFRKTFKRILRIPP
Sequence of Histamine H1 receptor (Cavia porcellus) (P31389 whole entry): as above
Sequence of Platelet-activating factor receptor (P25105 whole entry): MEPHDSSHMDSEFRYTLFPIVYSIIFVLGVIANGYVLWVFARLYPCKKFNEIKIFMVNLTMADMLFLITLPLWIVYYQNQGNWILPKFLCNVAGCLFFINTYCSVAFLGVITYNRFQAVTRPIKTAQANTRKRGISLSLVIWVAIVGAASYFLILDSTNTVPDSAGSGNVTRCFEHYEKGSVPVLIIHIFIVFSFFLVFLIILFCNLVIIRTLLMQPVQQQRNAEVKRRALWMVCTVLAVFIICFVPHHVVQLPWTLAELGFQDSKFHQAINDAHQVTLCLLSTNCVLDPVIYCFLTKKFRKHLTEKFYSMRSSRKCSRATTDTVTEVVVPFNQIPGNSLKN
Sequence of Histamine H2 receptor (P25102 whole entry): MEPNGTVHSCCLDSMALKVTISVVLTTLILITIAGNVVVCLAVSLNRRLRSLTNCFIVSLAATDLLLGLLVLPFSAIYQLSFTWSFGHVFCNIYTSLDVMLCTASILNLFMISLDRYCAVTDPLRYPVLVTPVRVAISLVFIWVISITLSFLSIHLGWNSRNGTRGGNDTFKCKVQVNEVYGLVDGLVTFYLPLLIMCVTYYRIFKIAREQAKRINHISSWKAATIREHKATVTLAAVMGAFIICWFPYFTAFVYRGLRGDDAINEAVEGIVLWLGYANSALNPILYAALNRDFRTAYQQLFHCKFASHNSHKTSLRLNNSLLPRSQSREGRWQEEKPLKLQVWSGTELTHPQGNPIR
Sequence of D(2) dopamine receptor (P61169 whole entry): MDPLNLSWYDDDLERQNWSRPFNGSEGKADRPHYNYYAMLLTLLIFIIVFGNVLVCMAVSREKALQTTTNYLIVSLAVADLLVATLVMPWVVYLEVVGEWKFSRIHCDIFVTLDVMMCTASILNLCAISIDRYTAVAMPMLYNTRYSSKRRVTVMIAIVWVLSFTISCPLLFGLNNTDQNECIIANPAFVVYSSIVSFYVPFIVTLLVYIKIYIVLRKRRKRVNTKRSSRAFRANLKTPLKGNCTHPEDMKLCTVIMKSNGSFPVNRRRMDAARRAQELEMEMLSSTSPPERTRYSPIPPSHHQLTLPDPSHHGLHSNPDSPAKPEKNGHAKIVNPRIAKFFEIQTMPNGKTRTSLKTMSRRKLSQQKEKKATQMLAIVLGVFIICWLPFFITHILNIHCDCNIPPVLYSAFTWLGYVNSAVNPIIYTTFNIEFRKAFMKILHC
Sequence of 5-hydroxytryptamine receptor 5B (P35365 whole entry): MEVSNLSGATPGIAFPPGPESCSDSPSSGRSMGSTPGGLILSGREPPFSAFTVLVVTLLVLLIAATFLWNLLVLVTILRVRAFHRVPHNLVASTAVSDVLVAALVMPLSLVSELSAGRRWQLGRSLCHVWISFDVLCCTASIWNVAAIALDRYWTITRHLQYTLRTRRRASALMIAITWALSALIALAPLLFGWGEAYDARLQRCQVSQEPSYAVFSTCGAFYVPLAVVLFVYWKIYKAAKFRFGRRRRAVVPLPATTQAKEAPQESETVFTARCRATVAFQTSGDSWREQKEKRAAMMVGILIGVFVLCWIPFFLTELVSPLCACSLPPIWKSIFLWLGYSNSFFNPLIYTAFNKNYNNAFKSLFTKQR

SMILES | Ki [1] | Ki (Histamine H1 receptor) | other results
O=C(O)c1ccc2c(c1)/C(=C/Cn1cnc3ccccc31)c1ccccc1CO2 | 15 nM | – | –
O=C(O)c1ccc2c(c1)/C(=C/CN1CCN(c3ccc(F)cc3)CC1)c1ccccc1CO2 | 2300 nM | – | inhibition [2]: 3%
O=C(O)c1ccc2c(c1)C(SCCN1CCC(c3ccccc3)CC1)c1ccccc1CO2 (centres undefined) | 990 nM | 20 nM | –
CN(C)C/C=C1\c2ccccc2COc2ccc(CC(=O)O)cc21 | > 1000 nM | – | ED50 (Rattus norvegicus [3]): 0.077 mg/kg
O=C(O)c1ccc2c(c1)C(SCCN1CCOCC1)c1ccccc1CO2 (centres undefined) | 1900 nM | 42 nM | –
CN(C)CCSC1c2ccccc2COc2ccc(C(=O)O)cc21 (centres undefined) | – | 9 nM | ED50 (Rattus norvegicus [3]): 0.92 mg/kg; inhibition (Cavia porcellus): 18%
O=C(O)c1ccc2c(c1)C(SCCN1CCC(Cc3ccccc3)CC1)c1ccccc1CO2 (stereo in doubt; (+)12) | 14000 nM | 9.9 nM | –
O=C(O)c1ccc2c(c1)C(SCCN1CCN(Cc3ccccc3)CC1)c1ccccc1CO2 (centres undefined) | 490 nM | 14 nM | –
O=C(O)c1ccc2c(c1)C(SCCN1CCc3ccccc3C1)c1ccccc1CO2 (centres undefined) | 240 nM | 6.9 nM | –
O=C(O)c1ccc2c(c1)C(SCCN1CCN(c3ccccc3)CC1)c1ccccc1CO2 (centres undefined) | 210 nM | 47 nM | –
O=C(O)Cc1ccc2c(c1)/C(=C\CN1CCC(Cc3ccccc3)CC1)c1ccccc1CO2 | 2600 nM | 15 nM | –
O=C(O)Cc1ccc2c(c1)/C(=C/CN1CCC(Cc3ccccc3)CC1)c1ccccc1CO2 | 740 nM | 20 nM | Ki (D(2) dopamine receptor): Not Active; Ki (Histamine H2 receptor): Not Active; Ki [4]: Not Active; Ki [5]: Not Active; Ki [6]: Not Active; Ki [7]: Not Active; ED50 (Rattus norvegicus [3]): 0.73 mg/kg; LD50 [8]: > 1000 mg/kg; Ki [9]: Not Active; Ki [10]: Not Active; Ki [11]: Not Active
CC(C)(C(=O)O)c1ccc2c(c1)C(SCCN1CCC(Cc3ccccc3)CC1)c1ccccc1CO2 (centres undefined) | 1600 nM | 17 nM | –
O=C(O)c1ccc2c(c1)C(SCCNS(=O)(=O)c1ccccc1)c1ccccc1CO2 (centres undefined) | 32 nM | – | inhibition [2]: 0%
O=C(O)COc1ccc(CCNS(=O)(=O)c2ccccc2)cc1 [SULOTROBAN] | – | – | inhibition [2]: 0%; ED50 (Rattus norvegicus [12]): inactive
O=C(O)c1ccc2c(c1)C(SCCN1CCN(c3ccc(F)cc3)CC1)c1ccccc1CO2 (centres undefined) | 400 nM | 41 nM | –
O=C(O)CCc1ccc2c(c1)C(SCCN1CCC(Cc3ccccc3)CC1)c1ccccc1CO2 (centres undefined) | 340 nM | 12 nM | –
O=C(O)Cc1ccc2c(c1)C(SCCN1CCC(Cc3ccccc3)CC1)c1ccccc1CO2 (centres undefined) | 430 nM | 10 nM | –
O=C(O)c1ccc2c(c1)C(SCCN1CCC(Cc3ccccc3)CC1)c1ccccc1CO2 (racemic) | 140 nM | 18 nM | –
CN1CCC(=C2c3ccccc3CC(=O)c3sccc32)CC1 [KETOTIFEN] | – | – | ED50 (Rattus norvegicus [3]): 4.8 mg/kg
O=C(O)c1ccc2c(c1)C(SCCN1CCC(n3c(O)nc4ccccc43)CC1)c1ccccc1CO2 (centres undefined) | 130 nM | 500 nM | –
O=C(O)c1ccc2c(c1)C(SCCN1CCC(Cc3ccccc3)CC1)c1ccccc1CO2 (stereo in doubt; (-)12) | 42 nM | 740 nM | –
